# Measurements taken from patent publication US20050209237A1, “Method for decreasing capillary permeability in the retina” (priority 2002, published 2005).
# Tested on: BRB breakdown in mice exposed to vascular endothelial growth factor (VEGF)
# Assay: BRB breakdown quantitated with intraperitoneal [3H]-mannitol tracer in mice after intravitreal VEGF
# Type: in vivo, C57B/J6 mice
# Conditions: gavage 50 mg/kg for three days prior to intravitreal VEGF 10^-6 M, [3H]-mannitol tracer at 6 hours
# Source text: Intraperitoneally administered radiolabeled tracer can be used to quantitate BRB breakdown in mice exposed to vascular endothelial growth factor (VEGF). This technique is particularly advantageous with neonatal mice because of the technical difficulty involved with intravascular injections. Also, the comparison of retinas from injected and control eyes to tissues without a blood-tissue barrier corrects for variations in the amount of isotope injected or absorbed into the circulation.
# Ten six- to seven-week-old C57B/J6 mice (Jackson Labs, Bar Harbor, Me.) are weighed to determine the proper dosage of anesthesia and tracer required. Mice are anesthetized with a solution containing 25 mg/kg ketamine (Ketaset; Fort Dodge Animal Health, Fort Dodge, Iowa) and 4 mg/kg rompun (Tranquived; Vedco, St. Joseph, Mo.) diluted 1:10 in saline prior to injection. […]
# One ml NCSII (Amersham, Chicago, Ill.) solubilizing solution is added to each vial and the vials are incubated overnight in a 50° C. water bath. […] The specimens are counted on a Wallace 1409 Liquid Scintillation Counter (Gaithersburg, :Md.).
# The counts per mg tissue are determined for treated (with 4-pyridylmethyl-phthalazine derivative) and untreated retina, lung, and kidney. Ratios of these values for treated or untreated retina/lung or kidney and for lung/kidney are calculated. […]
substance,measurement,setting,value
4-pyridylmethyl-phthalazine,retina/kidney ratio,"VEGF/vehicle-treated 0.6806±0.1060, Student-t value 0.0201",0.3881±0.0436
same,retina/lung ratio (cpm per mg of retina/cpm per mg of lung),"VEGF/vehicle-treated 0.8785±0.0946, Student-t value 0.0467",0.6326±0.0656
